Source: patent US8110570B2, “Modulators of acetyl-coenzyme A carboxylase and methods of use thereof” (Cropsolution, Inc., priority 2008, dated 2012)

Assays:
[1] = target: T1, hACC1 (Homo sapiens, UniProt Q13085); test: [14C]bicarbonate incorporation assay, overall ACC activity; format: biochemical; conditions: recombinant hACC1, overall ACC activity
T1 construct: PCR primers were designed for full-length hACC1 and hACC2 using GenBank submissions AY237919 and AJ575592, respectively; His tag (C); made in house; host or cells: baculovirus, Sf9 insect cells
Method: (§1) In vitro IC50 values of human ACC were determined using recombinant enzyme produced by standard procedures. For example, full-length cDNAs for both the human isoforms (hACC1 and hACC2) were each cloned and expressed as a recombinant protein using a baculovirus system. Double stranded cDNA from human fetal liver (Quick-Clone cDNA, cat. #7171-1) was purchased from BD/Clontech (Mt. View, Calif.). PCR primers were designed for full-length hACC1 and hACC2 using GenBank submissions AY237919 and AJ575592, respectively. The Advantage GC 2 PCR kit (BD/Clontech) was used for amplification. The PCR products (about 7 Kb) were TOPO-cloned into the pCR4Blunt vector (Invitrogen, Carlsbad, Calif.), and 6 clones of each gene were isolated. […] Full length versions of the two cDNAs corresponding to their respective Genbank sequences were assembled in pBluescript SK+ (Stratagene, La Jolla, Calif.) by combining error-free fragments from the PCR clones. The resulting hACC1 clone, designated pCS35, has six silent nucleotide differences compared to Genbank accession AY237919. The final hACC2 clone, designated pCS36, has ten silent nucleotide differences compared to Genbank accession AJ575592. Primers were designed to PCR amplify the cDNAs along with the in-frame 3′-his tag sequences from the pET vector and TOPO-cloned the resulting products into the Gateway® entry vector pENTR/D-TOPO. The ACC2 primers were designed to delete amino acids 1-148 and add Met-Gly in front of Lys149 in the final product. The resulting entry clones were transferred to BaculoDirect™ linear DNA (Invitrogen corp.) using the Gateway® LR recombination reaction. The recombinant baculovirus DNA was transfected into insect cells and viral amplification was performed according to the manufacturer's protocols. For protein expression sf9 cells were infected with a P3 viral stock in the presence of 50 uM biotin. The cells were harvested after 48-72 hr, lysed by sonication, and the resulting extract was clarified by centrifugation. ACC in the crude extract was concentrated by ammonium sulfate precipitation (40% w/v) and purified by Ni^2+-NTA chromatography (Novagen) followed by anion exchange chromatography on a UNO-Q column (BioRad).
(§2) Overall ACC activity in the hACC preparations is measured by following incorporation of [^14C]bicarbonate into […] essentially as described (Thumpy and Wakil, J Biol Chem 260, 6318-6323 (1985). Briefly, the reaction mixture (50 μL) contains: 50 mM Hepes (pH7.4), 20 mM K-Citrate, 20 mM Mg-Acetate 1.5 mM MgSO4, 2 mM DTT, 2 mM acetyl-CoA, 12 mM NaHCO3, 0.2 mM NaH^14CO3 (˜50 mCi/mmol), 0.01% (v/v) Triton X-100, 0.75 mg/mL BSA, 1% (v/v) DMSO (with or without inhibitor), and 0.3 μg (hACC1) or 0.15 μg (hACC2) enzyme. Reactions are initiated by the addition of ATP to a final concentration 2 mM. After 10 minutes at 37° C., the reaction is stopped by the addition of 2N HCl (50 μL). The samples are evaporated in a hood overnight, resuspended in H2O (200 μL), and incorporated label is quantified by scintillation counting in scintillation cocktail (3 mL). Inhibition data are fit to dose-response curves and IC50 values are reported (i.e. the concentration of inhibitor that gives 50% inhibition).

[2] = target: T2, hACC2 (Homo sapiens, UniProt O00763); test: as above; format: biochemical; conditions: recombinant hACC2, overall ACC activity
T2 construct: delete amino acids 1-148 and add Met-Gly in front of Lys149 in the final product; His tag (C); made in house; host or cells: baculovirus, Sf9 insect cells
Method: as §1, §2

[3] = target: uACC (Ustilago maydis ACC) (Ustilago maydis, UniProt A0A0D1DYD5); test: as above; format: biochemical
[4] = tested on: PC-3 human prostate cancer cells; test: MTT Cell Proliferation Assay; format: cell-based; conditions: 72 hours, read-out: Percent of Control PC-3
Method: (§3) The anti-proliferative activity of test compounds against human tumor cell lines is evaluated in vitro using the ATCC's MTT Cell Proliferation Assay (Catalog No. 30-100K). Cell lines are grown using media, serum, and culture conditions recommended by the ATCC. Stock cultures are allowed to grow to 70-80% confluence. Cells are seeded into 96-well culture plates at a predetermined density on day 0 in complete medium (0.1 mL). Plates are placed in a humidified incubator at 37° C. with 5% CO2 and 95% HEPA filtered room air for 24 hours. At this point compound (0.1 mL of 2× stock (in media)) is added to the indicated wells and the plates are returned to the incubator for 72 hours. Cell proliferation is measured by addition of MTT reagent to each well and incubated for an additional 4 hours, followed by addition of cell lysis/MTT solublization reagent and incubating overnight. […] Results are expressed as percent of control cells versus compound concentration. Compounds of the present invention, and salts thereof, were evaluated for anti-proliferative activity as described above.

[5] = tested on: A2780 human ovary cancer cells; test: MTT Cell Proliferation Assay; format: cell-based; conditions: 72 hours, read-out: Percent of Control A2780
Method: as §3

[6] = tested on: MDA-MB-231 human breast cancer cells; test: MTT Cell Proliferation Assay; format: cell-based; conditions: 72 hours, read-out: Percent of Control MDA-MB-231
Method: as §3

[7] = tested on: HCT-116 human colon cancer cells; test: MTT Cell Proliferation Assay; format: cell-based; conditions: 72 hours, read-out: Percent of Control HCT-116
Method: as §3

T2 sequence (O00763 149-2458 limits assumed): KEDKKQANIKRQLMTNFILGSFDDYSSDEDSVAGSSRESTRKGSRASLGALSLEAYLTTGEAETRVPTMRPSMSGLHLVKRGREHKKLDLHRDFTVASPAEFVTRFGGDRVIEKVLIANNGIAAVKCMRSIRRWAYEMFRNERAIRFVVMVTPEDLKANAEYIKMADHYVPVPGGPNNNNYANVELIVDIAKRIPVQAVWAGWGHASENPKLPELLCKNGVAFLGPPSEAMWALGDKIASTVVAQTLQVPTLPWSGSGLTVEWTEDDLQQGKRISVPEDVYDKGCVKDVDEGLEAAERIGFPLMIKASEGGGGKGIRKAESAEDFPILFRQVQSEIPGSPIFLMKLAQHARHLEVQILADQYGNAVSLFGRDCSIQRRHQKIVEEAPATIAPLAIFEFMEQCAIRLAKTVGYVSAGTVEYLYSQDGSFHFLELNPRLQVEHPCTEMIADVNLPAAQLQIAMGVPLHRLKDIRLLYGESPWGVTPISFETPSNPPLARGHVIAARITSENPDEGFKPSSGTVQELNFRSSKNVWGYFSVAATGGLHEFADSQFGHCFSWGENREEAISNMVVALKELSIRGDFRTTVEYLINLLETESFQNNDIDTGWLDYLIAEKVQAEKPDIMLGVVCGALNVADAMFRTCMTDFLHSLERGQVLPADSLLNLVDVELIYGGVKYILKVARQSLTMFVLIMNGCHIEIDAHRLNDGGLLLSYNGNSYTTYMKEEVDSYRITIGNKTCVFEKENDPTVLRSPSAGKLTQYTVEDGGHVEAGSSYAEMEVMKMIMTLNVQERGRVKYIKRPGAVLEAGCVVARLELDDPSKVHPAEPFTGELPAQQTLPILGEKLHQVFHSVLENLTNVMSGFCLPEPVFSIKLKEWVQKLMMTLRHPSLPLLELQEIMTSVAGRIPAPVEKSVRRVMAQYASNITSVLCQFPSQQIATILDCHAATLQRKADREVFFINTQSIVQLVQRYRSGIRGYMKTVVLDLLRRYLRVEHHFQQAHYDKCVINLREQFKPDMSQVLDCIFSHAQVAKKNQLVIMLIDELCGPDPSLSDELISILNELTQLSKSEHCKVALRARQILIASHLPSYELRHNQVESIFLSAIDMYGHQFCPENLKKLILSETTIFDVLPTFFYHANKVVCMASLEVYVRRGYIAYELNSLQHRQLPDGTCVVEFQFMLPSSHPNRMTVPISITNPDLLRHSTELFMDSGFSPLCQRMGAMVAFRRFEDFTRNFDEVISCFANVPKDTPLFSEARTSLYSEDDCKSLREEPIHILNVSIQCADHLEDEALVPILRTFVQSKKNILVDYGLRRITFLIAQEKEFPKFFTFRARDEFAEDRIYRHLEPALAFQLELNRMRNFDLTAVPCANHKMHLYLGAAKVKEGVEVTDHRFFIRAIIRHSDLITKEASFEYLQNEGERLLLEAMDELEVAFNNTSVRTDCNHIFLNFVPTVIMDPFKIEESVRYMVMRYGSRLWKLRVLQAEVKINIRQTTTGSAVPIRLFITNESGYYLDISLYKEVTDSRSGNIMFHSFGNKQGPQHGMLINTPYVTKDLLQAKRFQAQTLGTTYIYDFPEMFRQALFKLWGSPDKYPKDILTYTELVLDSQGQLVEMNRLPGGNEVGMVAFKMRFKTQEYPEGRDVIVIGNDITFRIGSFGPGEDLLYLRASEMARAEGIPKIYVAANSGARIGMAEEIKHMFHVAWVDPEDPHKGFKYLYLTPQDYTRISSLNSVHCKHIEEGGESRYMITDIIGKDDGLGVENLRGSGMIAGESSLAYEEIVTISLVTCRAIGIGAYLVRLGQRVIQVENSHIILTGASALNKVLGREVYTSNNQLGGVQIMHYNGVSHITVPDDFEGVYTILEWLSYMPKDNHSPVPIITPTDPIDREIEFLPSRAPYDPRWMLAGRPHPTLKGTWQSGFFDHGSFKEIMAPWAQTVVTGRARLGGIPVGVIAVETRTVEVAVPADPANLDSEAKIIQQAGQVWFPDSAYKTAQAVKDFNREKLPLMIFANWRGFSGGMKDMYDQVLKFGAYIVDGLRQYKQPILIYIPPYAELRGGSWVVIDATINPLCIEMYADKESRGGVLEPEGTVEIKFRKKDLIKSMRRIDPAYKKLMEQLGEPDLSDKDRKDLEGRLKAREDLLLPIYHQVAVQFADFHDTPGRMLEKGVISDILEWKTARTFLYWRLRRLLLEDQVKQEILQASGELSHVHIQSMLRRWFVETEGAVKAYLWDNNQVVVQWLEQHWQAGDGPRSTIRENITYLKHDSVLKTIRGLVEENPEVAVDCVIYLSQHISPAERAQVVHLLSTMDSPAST
Chain of uACC (Ustilago maydis ACC) (A0A0D1DYD5 entry or part of it): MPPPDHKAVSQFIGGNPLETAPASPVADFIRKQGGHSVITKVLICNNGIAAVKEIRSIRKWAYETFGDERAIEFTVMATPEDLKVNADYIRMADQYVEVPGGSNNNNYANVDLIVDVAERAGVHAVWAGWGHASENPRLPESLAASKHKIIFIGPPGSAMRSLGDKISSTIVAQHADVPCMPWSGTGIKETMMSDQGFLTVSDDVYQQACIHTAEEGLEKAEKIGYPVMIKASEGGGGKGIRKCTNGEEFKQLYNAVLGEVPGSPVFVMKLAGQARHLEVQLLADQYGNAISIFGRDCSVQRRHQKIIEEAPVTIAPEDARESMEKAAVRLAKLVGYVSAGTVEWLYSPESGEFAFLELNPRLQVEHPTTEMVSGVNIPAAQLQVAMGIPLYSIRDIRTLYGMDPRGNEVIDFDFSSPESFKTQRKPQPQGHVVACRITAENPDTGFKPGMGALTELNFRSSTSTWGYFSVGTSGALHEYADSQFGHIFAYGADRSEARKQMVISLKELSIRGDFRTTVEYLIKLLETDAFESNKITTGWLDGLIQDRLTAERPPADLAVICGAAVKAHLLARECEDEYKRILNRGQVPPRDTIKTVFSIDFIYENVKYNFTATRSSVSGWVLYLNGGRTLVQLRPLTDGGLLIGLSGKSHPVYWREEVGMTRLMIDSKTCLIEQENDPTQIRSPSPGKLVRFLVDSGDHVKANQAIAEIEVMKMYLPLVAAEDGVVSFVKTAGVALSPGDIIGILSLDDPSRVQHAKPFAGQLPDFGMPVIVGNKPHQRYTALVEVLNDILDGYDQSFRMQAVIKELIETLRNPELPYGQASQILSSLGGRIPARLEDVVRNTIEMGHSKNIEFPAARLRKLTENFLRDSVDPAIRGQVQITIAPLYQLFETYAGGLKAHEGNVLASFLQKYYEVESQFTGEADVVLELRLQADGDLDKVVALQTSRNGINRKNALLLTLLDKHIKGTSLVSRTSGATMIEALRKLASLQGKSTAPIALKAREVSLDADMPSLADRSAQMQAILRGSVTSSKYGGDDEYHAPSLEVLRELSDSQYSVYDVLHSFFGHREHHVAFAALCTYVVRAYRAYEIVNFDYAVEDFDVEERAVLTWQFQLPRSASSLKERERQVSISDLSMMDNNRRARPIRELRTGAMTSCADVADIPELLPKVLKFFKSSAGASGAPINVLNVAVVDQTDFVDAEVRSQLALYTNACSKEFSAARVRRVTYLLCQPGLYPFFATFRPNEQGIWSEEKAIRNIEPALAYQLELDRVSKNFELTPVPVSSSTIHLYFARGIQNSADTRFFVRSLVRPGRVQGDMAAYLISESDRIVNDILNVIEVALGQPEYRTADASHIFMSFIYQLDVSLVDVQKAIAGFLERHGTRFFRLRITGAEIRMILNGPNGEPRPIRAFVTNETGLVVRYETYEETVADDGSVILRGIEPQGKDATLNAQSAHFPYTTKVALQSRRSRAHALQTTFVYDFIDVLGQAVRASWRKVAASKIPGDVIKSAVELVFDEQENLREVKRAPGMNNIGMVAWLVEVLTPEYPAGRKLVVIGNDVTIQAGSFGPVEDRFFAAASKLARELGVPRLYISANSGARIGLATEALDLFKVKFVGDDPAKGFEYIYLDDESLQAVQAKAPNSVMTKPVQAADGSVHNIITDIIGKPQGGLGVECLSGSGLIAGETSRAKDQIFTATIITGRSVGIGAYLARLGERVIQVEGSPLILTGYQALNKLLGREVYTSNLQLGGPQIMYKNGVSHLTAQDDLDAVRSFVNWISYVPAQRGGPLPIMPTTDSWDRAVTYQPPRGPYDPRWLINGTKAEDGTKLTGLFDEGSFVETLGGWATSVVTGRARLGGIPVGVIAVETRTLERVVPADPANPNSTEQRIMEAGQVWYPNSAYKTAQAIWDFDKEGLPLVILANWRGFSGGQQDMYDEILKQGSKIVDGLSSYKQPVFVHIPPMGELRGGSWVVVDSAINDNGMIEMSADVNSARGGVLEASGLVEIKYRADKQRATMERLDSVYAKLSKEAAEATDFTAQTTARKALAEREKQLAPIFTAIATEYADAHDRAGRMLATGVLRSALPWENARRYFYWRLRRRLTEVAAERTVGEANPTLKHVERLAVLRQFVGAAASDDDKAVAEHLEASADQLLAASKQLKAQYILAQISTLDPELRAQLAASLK

SMILES | IC50 [1] | IC50 [2] | IC50 [3] | activity at 3.3 µM [4] | activity at 10 µM [4] | activity at 3.3 µM [5] | activity at 10 µM [5] | activity at 3.3 µM [6] | activity at 10 µM [6] | activity at 3.3 µM [7] | activity at 10 µM [7]
O=C1NC2(CCN(C(=O)c3sc4ccccc4c3Cl)CC2)Oc2ccc(Br)cc21 [Compound 1, 6-Bromo-1′-[(3-chlorobenzothien-2-yl)carbonyl]spiro[2H-1,3-benzoxazine-2,4′-piperidine]-4(3H)-one] | 6000 nM | 5400 nM | 160000 nM | – | – | – | – | – | – | – | –
COc1cc2c(OC)cccc2cc1C(=O)N1CCC2(CC1)NC(=O)c1cc(Br)ccc1O2 [Compound 3, 6-Bromo-1′-[(3,5-dimethoxynaphth-2-yl)carbonyl]spiro[2H-1,3-benzoxazine-2,4′-piperidine]-4(3H)-one] | 860 nM | 290 nM | 90000 nM | – | – | – | – | – | – | – | –
Cc1nn(C)c2sc(C(=O)N3CCC4(CC3)NC(=O)c3cc(Br)ccc3O4)cc12 [Compound 4, 6-Bromo-1′-{(1,3-dimethyl-1H-thieno[2,3-c]pyrazol-5-yl)carbonyl} spiro[2H-1,3-benzoxazin-2,4′-piperidin]-4-(3H)-one] | 2800 nM | 2900 nM | 50000 nM | – | – | – | – | – | – | – | –
O=C1NC2(CCN(C(=O)c3cc4c(Cl)cccc4s3)CC2)Oc2ccc(Br)cc21 [Compound 5, 6-Bromo-1′-[(4-chlorobenzthien-2-yl)carbonyl]spiro[2H-1,3-benzoxazin-2,4′-piperidin]-4-(3H)-one] | 4500 nM | 2100 nM | > 135000 nM | – | – | – | – | – | – | – | –
COc1cc(C(=O)N2CCC3(CC2)NC(=O)c2cc(Br)ccc2O3)cc2c(OC)cccc12 [Compound 30, 6-Bromo-1′-[(4,8-dimethoxynaphth-2-yl)carbonyl]spiro[2H-1,3-benzoxazin-2,4′-piperidin]-4-(3H)-one] | 16 nM | 17 nM | 20000 nM | – | – | – | – | – | – | – | –
COc1cc(C(=O)N2CCC3(CC2)NC(=O)c2cc(NC(C)=O)ccc2O3)nc2c(C3CC3)cccc12 [Compound 33] | 73 nM | 51 nM | 19300 nM | – | – | – | – | – | – | – | –
COc1ccc(-c2cc(C(=O)N3CCC4(CC3)NC(=O)c3ccccc3O4)n[nH]2)cc1 [Compound 87, 1′-[5-(4-Methoxyphenyl)-1(H)-pyrazol-3-ylcarbonyl]spiro[2H-1,3-benzoxazin-2,4′-piperidin]-4-(3H)-one] | 9700 nM | 12000 nM | 220000 nM | – | – | – | – | – | – | – | –
CCOc1ccc2c(c1)C(=O)NC1(CCN(C(=O)c3cc(OC)c4cccc(OC)c4n3)CC1)O2 [Compound 139] | 50 nM | 33 nM | 20000 nM | 57% | 54.7% | 85.9% | 60.1% | 70.3% | 46.4% | 68.4% | 49.9%
COc1cc(C(=O)N2CCC3(CC2)NC(=O)c2cc(C)ccc2O3)cc2c(OC)cccc12 [Compound 145, 1′-[(4,8-Dimethoxynaphth-2-yl)carbonyl]-6-methylspiro[2H-1,3-benzoxazin-2,4′-piperidin]-4-(3H)-one] | 11 nM | 7 nM | 5200 nM | – | – | – | – | – | – | – | –
CCOc1ccc2c(c1)C(=O)NC1(CCN(C(=O)c3cc(OC)c4cccc(OC)c4c3)CC1)O2 [Compound 146, 1′-[(4,8-Dimethoxynaphth-2-yl)carbonyl]-6-ethoxyspiro[2H-1,3-benzoxazin-2,4′-piperidin]-4-(3H)-one] | 5 nM | 4 nM | 3000 nM | – | – | – | – | – | – | – | –
COc1cccc2c(C)c(C(=O)N3CCC4(CC3)NC(=O)c3cc(OC(C)C)ccc3O4)[nH]c12 [Compound 180] | 36 nM | 42 nM | – | 79.5% | 56.8% | 79.4% | 21.2% | 68.7% | 9.3% | 52.6% | 29.8%
COc1ccc(OC)c2[nH]c(C(=O)N3CCC4(CC3)NC(=O)c3cc(OC(C)C)ccc3O4)cc12 [Compound 184] | 480 nM | 400 nM | – | 81.3% | 64.6% | 90% | 44.7% | 75.8% | 46.1% | 65.5% | 40.4%
COC(=O)c1ccc2c(c1)C(=O)NC1(CCN(C(=O)c3cc(OC)c4cccc(OC)c4n3)CC1)O2 [Compound 201] | 20 nM | 18 nM | – | 52.7% | 37.1% | 83.2% | 46.4% | 82.5% | 61.5% | 59.8% | 46.8%
